Biological target: T1, ligand binding domain of human FXR (Homo sapiens, UniProt Q96RI1)
T1 construct: purchased Thermofisher (LanthaScreen) PV4833
T1 sequence (Q96RI1 262-486 limits assumed): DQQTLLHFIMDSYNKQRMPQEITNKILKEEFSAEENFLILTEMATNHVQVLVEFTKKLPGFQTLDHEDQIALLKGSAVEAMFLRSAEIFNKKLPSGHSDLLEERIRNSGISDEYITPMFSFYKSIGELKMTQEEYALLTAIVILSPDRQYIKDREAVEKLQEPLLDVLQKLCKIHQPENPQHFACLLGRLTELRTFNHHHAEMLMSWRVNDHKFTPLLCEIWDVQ
Experiment: biochemical
Conditions: for Emax: extent of activation relative to GW4064, read-out: Ligand Binding % Efficacy; for EC50: −log EC50, concentration required to produce 50% activation, FRET 520 nm/495 nm, 1 hour at room temperature, read-out: Ligand Binding pEC50 (converted)
Experimental: The affinity of FXR ligands for the ligand binding domain of FXR was determined using a commercially available human FXR ligand binding assay (LanthaScreen, Thermofisher Cat #PV4833). […] Binding of FXR ligands to the FXR ligand binding domain promotes binding of the fluorescein-labelled SRC2-2 peptide. This causes a FRET signal between the terbium-labelled anti-GST antibody and the fluorescein-labelled SRC peptide which are both bound to the FXR ligand binding domain.
Test compounds are dissolved in DMSO and a 3-fold serial dilution series is generated, then further diluted into assay buffer. The compounds are mixed with 5 nM GST-tagged FXR ligand binding domain, 5 nM Tb-labelled anti-GST antibody and 500 nM fluorescein-labelled SRC2-2 peptide in a pH7.4 buffer. The reaction is incubated at room temperature for 1 hour, then the FRET signal is measured as the ratio of the 520 nm/495 nm emission following excitation at 340 nm. The change in FRET signal is plotted against the test article concentration and fit to a 3-parameter logistical equation.

Row | SMILES | Emax [%] | EC50 [nM]
1 | O=C(O)c1c(F)cc(N2C[C@@H]3C[C@H]2C[C@H]3OCc2c(C3CC3)cnn2-c2c(Cl)cccc2Cl)cc1F [Compound I-3, 4-[(1S,4S,5R)-5-{[4-cyclopropyl-1-(2,6-dichlorophenyl)-1H-pyrazol-5-yl]methoxy}-2-azabicyclo[2.2.1]heptan-2-yl]-2,6-difluorobenzoic acid] | 156 | 39.8
2 | O=C(O)c1ccc(N2C[C@@H]3C[C@H]2C[C@H]3OCc2c(C3CC3)cnn2-c2c(Cl)cccc2Cl)nc1 [Compound I-4, 6-[(1S,4S,5R)-5-{[4-cyclopropyl-1-(2,6-dichlorophenyl)-1H-pyrazol-5-yl]methoxy}-2-azabicyclo[2.2.1]heptan-2-yl]pyridine-3-carboxylic acid] | 132 | 100
3 | O=C(O)c1ccc(N2C[C@@H]3C[C@H]2C[C@H]3OCc2c(C3CC3)cnn2-c2c(Cl)cccc2Cl)cn1 [Compound I-5, 5-[(1S,4S,5R)-5-{[4-cyclopropyl-1-(2,6-dichlorophenyl)-1H-pyrazol-5-yl]methoxy}-2-azabicyclo[2.2.1]heptan-2-yl]pyridine-2-carboxylic acid] | 119 | 251
4 | O=C(O)c1ncc(N2C[C@@H]3C[C@H]2C[C@H]3OCc2c(C3CC3)cnn2-c2c(Cl)cccc2Cl)cn1 [Compound I-6, 5-[(1S,4S,5R)-5-{[4-cyclopropyl-1-(2,6-dichlorophenyl)-1H-pyrazol-5-yl]methoxy}-2-azabicyclo[2.2.1]heptan-2-yl]pyrimidine-2-carboxylic acid] | 101 | 
5 | Cc1cccc(C)c1-n1ncc(C2CC2)c1CO[C@@H]1C[C@@H]2C[C@H]1CN2c1ccc(C(=O)O)c(F)c1 [Compound I-7, 4-[(1S,4S,5R)-5-{[4-cyclopropyl-1-(2,6-dimethylphenyl)-1H-pyrazol-5-yl]methoxy}-2-azabicyclo[2.2.1]heptan-2-yl]-2-fluorobenzoic acid] | 134 | 25.1
6 | Cc1cccc(Cl)c1-n1ncc(C2CC2)c1CO[C@@H]1C[C@@H]2C[C@H]1CN2c1ccc(C(=O)O)c(F)c1 [Compound I-8, 4-[(1S,4S,5R)-5-{[1-(2-chloro-6-methylphenyl)-4-cyclopropyl-1H-pyrazol-5-yl]methoxy}-2-azabicyclo[2.2.1]heptan-2-yl]-2-fluorobenzoic acid] | 164 | 7.94
7 | O=C(O)c1ccc(N2C[C@@H]3C[C@H]2C[C@H]3OCc2c(C3CC3)cnn2-c2c(F)cccc2Cl)cc1F [Compound I-9, 4-[(1S,4S,5R)-5-{[1-(2-chloro-6-fluorophenyl)-4-cyclopropyl-1H-pyrazol-5-yl]methoxy}-2-azabicyclo[2.2.1]heptan-2-yl]-2-fluorobenzoic acid] | 164 | 39.8
8 | O=C(O)c1ccc(N2C(=O)[C@@H]3C[C@H]2C[C@H]3OCc2c(C3CC3)cnn2-c2c(Cl)cccc2Cl)cc1 [Compound I-11, 4-[(1S,4R,5R)-5-{[4-cyclopropyl-1-(2,6-dichlorophenyl)-1H-pyrazol-5-yl]methoxy}-3-oxo-2-azabicyclo[2.2.1]heptan-2-yl]benzoic acid] | 152 | 39.8
9 | O=C(O)c1ccc(N2C(=O)[C@@H]3C[C@H]2C[C@H]3OCc2c(C3CC3)cnn2-c2c(Cl)cccc2Cl)cc1F [Compound I-12, 4-[(1S,4R,5R)-5-{[4-cyclopropyl-1-(2,6-dichlorophenyl)-1H-pyrazol-5-yl]methoxy}-3-oxo-2-azabicyclo[2.2.1]heptan-2-yl]-2-fluorobenzoic acid] | 176 | 39.8
10 | O=C(O)c1ccc(N2C(=O)[C@@H]3C[C@H]2C[C@H]3OCc2c(C3CC3)cnn2-c2c(Cl)cccc2Cl)c(F)c1 [Compound I-13, 4-[(1S,4R,5R)-5-{[4-cyclopropyl-1-(2,6-dichlorophenyl)-1H-pyrazol-5-yl]methoxy}-3-oxo-2-azabicyclo[2.2.1]heptan-2-yl]-3-fluorobenzoic acid] | 142 | 158
11 | C[C@@H]1[C@@H]2C[C@@H](C[C@H]2OCc2c(C3CC3)cnn2-c2c(Cl)cccc2Cl)N1c1ccc(C(=O)O)cc1 [Compound I-14, 4-[(1S,3R,4S,5R)-5-{[4-cyclopropyl-1-(2,6-dichlorophenyl)-1H-pyrazol-5-yl]methoxy}-3-methyl-2-azabicyclo[2.2.1]heptan-2-yl]benzoic acid] | 48 | 398
12 | C[C@@H]1[C@@H]2C[C@@H](C[C@H]2OCc2c(C3CC3)cnn2-c2c(Cl)cccc2Cl)N1c1ccc(C(=O)O)c(F)c1 [Compound I-15, 4-[(1S,3R,4S,5R)-5-{[4-cyclopropyl-1-(2,6-dichlorophenyl)-1H-pyrazol-5-yl]methoxy}-3-methyl-2-azabicyclo[2.2.1]heptan-2-yl]-2-fluorobenzoic acid] | 44 | 1000
13 | CC[C@@H]1[C@@H]2C[C@@H](C[C@H]2OCc2c(C3CC3)cnn2-c2c(Cl)cccc2Cl)N1c1ccc(C(=O)O)cc1 [Compound I-16, 4-[(1S,3R,4S,5R)-5-{[4-cyclopropyl-1-(2,6-dichlorophenyl)-1H-pyrazol-5-yl]methoxy}-3-ethyl-2-azabicyclo[2.2.1]heptan-2-yl]benzoic acid] | 52 | 1000
14 | CC[C@H]1[C@H]2C[C@H](C[C@@H]2OCc2c(C3CC3)cnn2-c2c(Cl)cccc2Cl)N1c1ccc(C(=O)O)cc1 [Compound I-17, 4-[(1R,3S,4R,5S)-5-{[4-cyclopropyl-1-(2,6-dichlorophenyl)-1H-pyrazol-5-yl]methoxy}-3-ethyl-2-azabicyclo[2.2.1]heptan-2-yl]benzoic acid] | 15 | 
15 | CC[C@@H]1[C@@H]2C[C@@H](C[C@H]2OCc2c(C3CC3)cnn2-c2c(Cl)cccc2Cl)N1c1ccc(C(=O)O)c(F)c1 [Compound I-18, 4-[(1S,3R,4S,5R)-5-{[4-cyclopropyl-1-(2,6-dichlorophenyl)-1H-pyrazol-5-yl]methoxy}-3-ethyl-2-azabicyclo[2.2.1]heptan-2-yl]-2-fluorobenzoic acid] | 47 | 
16 | CC[C@H]1[C@H]2C[C@H](C[C@@H]2OCc2c(C3CC3)cnn2-c2c(Cl)cccc2Cl)N1c1ccc(C(=O)O)c(F)c1 [Compound I-19, 4-[(1R,3S,4R,5S)-5-{[4-cyclopropyl-1-(2,6-dichlorophenyl)-1H-pyrazol-5-yl]methoxy}-3-ethyl-2-azabicyclo[2.2.1]heptan-2-yl]-2-fluorobenzoic acid] | 30 | 
17 | CC1(C)CC(S(=O)(=O)NC(=O)c2ccc(N3C[C@@H]4C[C@H]3C[C@H]4OCc3c(C4CC4)cnn3-c3c(Cl)cccc3Cl)cc2)CCO1 (stereo partly drawn) [Compound I-21, 4-[(1S,4S,5R)-5-{[4-cyclopropyl-1-(2,6-dichlorophenyl)-1H-pyrazol-5-yl]methoxy}-2-azabicyclo[2.2.1]heptan-2-yl]-N-[(2,2-dimethyloxan-4-yl)sulfonyl]benzamide] | 174 | 1.58
18 | O=C(NS(=O)(=O)C1CC1)c1ccc(N2C[C@@H]3C[C@H]2C[C@H]3OCc2c(C3CC3)cnn2-c2c(Cl)cccc2Cl)cc1 [Compound I-22, 4-((1S,4S,5R)-5-((4-cyclopropyl-1-(2,6-dichlorophenyl)-1H-pyrazol-5-yl)methoxy)-2-azabicyclo[2.2.1]heptan-2-yl)-N-(cyclopropylsulfonyl)benzamide] | 166 | 3.98
19 | O=C(NS(=O)(=O)C1CCOCC1)c1ccc(N2C[C@@H]3C[C@H]2C[C@H]3OCc2c(C3CC3)cnn2-c2c(Cl)cccc2Cl)cn1 [Compound I-25, 5-((1S,4S,5R)-5-((4-cyclopropyl-1-(2,6-dichlorophenyl)-1H-pyrazol-5-yl)methoxy)-2-azabicyclo[2.2.1]heptan-2-yl)-N-((tetrahydro-2H-pyran-4-yl)sulfonyl)picolinamide] | 130 | 25.1
20 | O=C(NS(=O)(=O)C1CCOCC1)c1ccc(N2C(=O)[C@@H]3C[C@H]2C[C@H]3OCc2c(C3CC3)cnn2-c2c(Cl)cccc2Cl)cc1 [Compound I-26, 4-((1S,4R,5R)-5-((4-cyclopropyl-1-(2,6-dichlorophenyl)-1H-pyrazol-5-yl)methoxy)-3-oxo-2-azabicyclo[2.2.1]heptan-2-yl)-N-((tetrahydro-2H-pyran-4-yl)sulfonyl)benzamide] | 169 | 10
21 | O=C(NS(=O)(=O)C1CCOCC1)c1ccc(N2C(=O)[C@@H]3C[C@H]2C[C@H]3OCc2c(C3CC3)cnn2-c2c(Cl)cccc2Cl)cc1F [Compound I-27, 4-((1S,4R,5R)-5-((4-cyclopropyl-1-(2,6-dichlorophenyl)-1H-pyrazol-5-yl)methoxy)-3-oxo-2-azabicyclo[2.2.1]heptan-2-yl)-2-fluoro-N-((tetrahydro-2H-pyran-4-yl)sulfonyl)benzamide] | 185 | 5.01
22 | C[C@@H]1[C@@H]2C[C@@H](C[C@H]2OCc2c(C3CC3)cnn2-c2c(Cl)cccc2Cl)N1c1ccc(C(=O)NS(=O)(=O)C2CCOCC2)c(F)c1 [Compound I-28, 4-((1S,3R,4S,5R)-5-((4-cyclopropyl-1-(2,6-dichlorophenyl)-1H-pyrazol-5-yl)methoxy)-3-methyl-2-azabicyclo[2.2.1]heptan-2-yl)-2-fluoro-N-((tetrahydro-2H-pyran-4-yl)sulfonyl)benzamide] | 56 | 398

— US11753410B2, “Hormone receptor modulators for treating metabolic mutagenic and fibrotic conditions and disorders” (priority 2017, dated 2023)
